According to US4313943A, “7-Chloro-2,3-dihydro-5-phenyl-1-propargyl-1H-1,4-benzodiazepine-2-one, and a pharmaceutical composition thereof” (priority 1972, dated 1982):
Values joined by “and” are separate entries in the source; they are usually repeats but may differ in a detail not shown here. Identical values can stand only once. “Also recorded” adds a separate entry of the source.

Assays:
[1] = Comparative tranquilizing effects: four plates test; assay type: in vivo
From the text: The method utilized was the 4 plates test of J. R. Boissier, et al (European J. of Pharm. 1968, Vol. 4, pages 145-151).

[2] = Reduction in motor activity between 60 and 90 minutes; assay type: in vivo; details: for Reduction in Motor Activity Between 60 and 90 Minutes: significance NS (comp. 1), 0.002 (comp. 4)
[3] = Rotarod test, equilibrium (Table 6); assay type: in vivo
[4] = Convulsions induced by pentamethylenetetrazol in rats; assay type: in vivo
Method: The method utilized was according to the method published by Everett and Richards (1944) and Banziger (1965). The pentamethylenetetrazol was given subcutaneously (125 mg/kg) and the test compounds were given orally suspended in a 1% carboxymethyl cellulose solution.

[5] = Acute toxicity comparison (LD50, Litchfield and Wilcoxan); details: in vivo; Table 11; oral; species not given
Method: Toxicity in test animals to the test compounds in terms of LD50 after oral and intraperitoneal administration was determined according to the procedure of Litchfield and Wilcoxan (1949) and the hypnotic effect on test animals was determined in accordance with the method of Janssen (1959).

[6] = Conditioned avoidance response (shuttle box); assay type: in vivo; details: for Number of Conditioned Avoidance Responses: CMC 1% 16.7 ± 0.3
Method: Conditioned avoidance response by trained animals in a conventional shuttle box procedure was determined after oral administration of Compounds 1 and 4.

[7] = Conditioned emotional response (CER), tone paired with foot shock; assay type: in vivo
Method: Conditioned emotional response (CER) in test animals was conventionally determined by a tone paired with a foot shock which was presented to hungry animals trained to press a lever for intermittent food reinforcement. After a few such pairings, the presence of the tone alone was sufficient to disrupt the lever pressing behavior. CER is considered a model of behavior anxiety in animals. […] Thus, a 1.25 mg/kg os of compounds 1 and 4 respectively produced about a 350 and 630% increase in CER while a 5 mg/kg os of compounds 1 and 4 respectively produced about 920 and 1600% increase.

[8] = ECoG and sedation in test animals free to move; assay type: in vivo
Method: Some test animals were kept in restraint cases placed in a relatively soundproof room and some were left free to move in metal cases measuring 40×50×30 cm, which were also kept in a relatively quiet environment.
In the test animals which were free to move, the first signs of sedation produced by the intragastric administration of 7.5 mg/kg of compounds 1 and 4 appeared, respectively, at 16 minutes (compound 1) and at 8 minutes (compound 4). […] The duration of the effect was, however, shorter, not exceeding 3 hours under these conditions in contrast to the 5 hour minimum for restricted animals.

[9] = Cortical and hippocampal arousal thresholds on stimulation of MRF, median thalamus and posterior hypothalamus; assay type: in vivo; details: 7.5 mg/kg intragastric
Method: The test animals in this study were prepared by the techniques described by Monnier and Gangloff under the preceding study (infra B, page 30). Stimulation consisted of a series of waves delivered at a frequency of 200 c/sec., lasting 0.3 m sec., with a total duration of the stimulus being 5 sec. These shocks were delivered by a Neurovar neurostimulator (Alvar Electronic) coupled with a CRC cathode oscilloscope (type OC 343). Cerebral electrical activity was recorded on a REEGA MINI HUIT electroencephalograph (Alvar Electronic). The test animals were kept in restraint cages in a relatively soundproof room.
The activity of compounds 1 and 4 was tested in a series of six test animals for each compound, with a single dose of 7.5 mg/kg administered by the intragastric route. In each animal, the arousal threshold was determined for two of the three structures tested so that for each compound, each of the three structures stimulated were tested four times.
In making the baseline tracing, the threshold voltage was determined by a finding that the duration of the arousal reaction produced by the 5-second stimulation exceeded the duration of the stimulation by at least 5 seconds, that is, for a minimum of 10 seconds.
The various thresholds were determined every 45 minutes after administration of the compounds, for a total period of four and one-half hours.
The critical value for raising of a threshold was fixed at 0.1 volts. This constituted the maximum variation recorded during 41/2 hours in the control animals.
The results were taken in two forms and then summarized. In the first result, each animal was observed, yielding the values for the thresholds recorded at each time interval as well as the ratios of the values obtained in each of the stimulated structures.

[10] = tested on: posterior amygdaloid complex; test: Amygdaloid after-discharge (stimulation of posterior amygdaloid complex); assay type: in vivo; details: 7.5 mg/kg intragastric; for Duration of Amygdaloid After-Discharge: individual animals
Method: The test animals for this study were also prepared according to the technique described by Monnier and Gangloff (infra B, page 30) and the animals were kept in restraint cages in a relatively soundproof room.
The activity of test compounds 1 and 4 was assessed in identical groups of test animals for each compound, with identical numbers of animals for hippocampal after-discharges and for amygdaloid after-discharges. A dose of 7.5 mg/kg of each test compound was adminstered by the intragastric route. In each animal, after-discharges were triggered every 45 minutes after the administration of a test compound.
The stimulation consisted of a series of waves with a duration of 3 m sec., delivered at a frequency of 40 c/sec., with 5 seconds as the total duration of the stimulation. The shocks were delivered by a Neurovar neurostimulator (Alvar Electronic), coupled to a CRC cathode oscilloscope (type OC 343). Cerebral electric activity was recorded by REEGA MINI HUIT electroencephalograph (Alvar Electronic).

[11] = Potentiation of narcotic effect of Veronal; details: in vivo
[12] = 7.5 mg/kg intragastric, animals free to move

## C#CCN1C(=O)CN=C(c2ccccc2Cl)c2cc(Cl)ccc21 [Compound 4, 7-chloro-2,3-dihydro-5-(2-chlorophenyl)-1-propargyl-1,H-1,4-benzodiazepine-2-one]
[1]; 1 h, 60 min. after administration, doses between 0.5 and 4 mg/kg, confidence limits for P = 0.05
  ED50: 5.5 mg/kg
[1]; compounds 1 and 4 compared
  Duration of effect: comparable
[1]; over 3 mg/kg
  usability of 4 plates test: caused motor activity to be so reduced that 4 plates test
[2]; 1 mg/kg
  Reduction in Motor Activity Between 60 and 90 Minutes: -69%
[2]; 3 mg/kg
  Reduction in Motor Activity Between 60 and 90 Minutes: -82%
[2]; in vivo
  changes in motor activity / voluntary motility: reduces voluntary motility
[3]; 1 mg/kg
  Rotarod Test % of Animals With Unchanged Equilibrium: 50.0%
[3]; 3 mg/kg
  Rotarod Test % of Animals With Unchanged Equilibrium: 8.3%
[3]; in vivo
  changes in equilibrium / motor coordination: degradation of motor coordination
[4]; 6 mg/kg/os, pentamethylenetetrazol 125 mg/kg s.c.
  % Protected Animals: 20%
[4]; 8.5 mg/kg/os, pentamethylenetetrazol 125 mg/kg s.c.
  % Protected Animals: 60%
[4]; 12 mg/kg/os, pentamethylenetetrazol 125 mg/kg s.c.
  % Protected Animals: 70%
[4]; Rattus norvegicus, oral, protection against pentamethylenetetrazol, read-out: ED50 (and C.L.) (converted)
  ED50: 8.5 mg/kg
[4]; Time 90 min.
  % Protected Animals: 37%
[4]; Time 120 min.
  % Protected Animals: 18%
[4]; Time 180 min.
  % Protected Animals: 0%
[4]; Time 240 min.
  % Protected Animals: 0%
[5]
  LD50: > 5000 mg/kg
[6]; 5 mg/kg oral
  % Decrease (conditioned avoidance responses): -44%
  Number of Conditioned Avoidance Responses: 9.2 ± 1.4
[6]; 10 mg/kg oral
  % Decrease (conditioned avoidance responses): -85%
  Number of Conditioned Avoidance Responses: 2.5 ± 1.5
[7]; 1.25 mg/kg os
  increase in CER: ~630%
[7]; 5 mg/kg os
  increase in CER: ~1600%
[8]; [12]
  duration of the ECoG effect: ≤ 3 h
  first signs of sedation: 8 min
[8]; unrestricted animals, compound 3 at 10 mg/kg
  duration of ECoG effects (three compounds compared): about 31/2
[9]
  effect on arousal pathways (in words): substantially raised the cortical and hippocampal arousal thresholds following stimulation of the reticular formation of the brain stem; also recorded: posterior hypothalamus appeared to be little affected; also recorded: moderately reduced in duration
[9]; MRF stimulation
  % of Mean Variation of arousal threshold, Cortex: +311%
  % of Mean Variation of arousal threshold, Hippocampus: +308%
[9]; Median Thalamus stimulation
  % of Mean Variation of arousal threshold, Cortex: +67%
  % of Mean Variation of arousal threshold, Hippocampus: +67%
[9]; Posterior Hippocampus
  % of Mean Variation of arousal threshold, Cortex: +56%
[9]; Posterior hypothalamus stimulation
  % of Mean Variation of arousal threshold, Hippocampus: +60%
[10]
  effect on amygdaloid after-discharge: lasting inhibitory effect
[10]; 45 Mins.
  Duration of Amygdaloid After-Discharge: 29 s and 43 s and 30 s and 35 s
[10]; 90 Mins.
  Duration of Amygdaloid After-Discharge: 32 s and 46 s and 33 s and 40 s and 16 s
[10]; 135 Mins.
  Duration of Amygdaloid After-Discharge: 35 s and 27 s and 40 s and 26 s
[10]; 180 Mins.
  Duration of Amygdaloid After-Discharge: 33 s and 29 s and 48 s
[10]; 225 Mins.
  Duration of Amygdaloid After-Discharge: 37 s and 35 s and 34 s and 41 s
[10]; 270 Mins.
  Duration of Amygdaloid After-Discharge: 38 s and 42 s and 37 s and 39 s and 50 s
[11]
  narcotic effect of a minimal dose of Veronal: potentiate the narcotic effect of a minimal dose of Veronal
